# Measured values from article PMC10008561 (Nature Communications, 2023).
# Where “and” joins values, the source holds several entries; their conditions need not be identical. Equal entries are not always repeated.
# Key:
# Experiment in all cases: cell-based
# human KOR (Gi1) [1] = biological target: T1, human KOR (Gi1) (Homo sapiens, UniProt P41145, R170A); details: HEK-293T
# T1 construct: expressed in transfected cells; host or cells: HEK293T
# human KOR (Gi1) [2] = biological target: T2, human KOR (Gi1) (Homo sapiens, UniProt P41145)
# T2 construct: expressed in transfected cells; host or cells: HEK293T
# T2 sequence (P41145 whole entry): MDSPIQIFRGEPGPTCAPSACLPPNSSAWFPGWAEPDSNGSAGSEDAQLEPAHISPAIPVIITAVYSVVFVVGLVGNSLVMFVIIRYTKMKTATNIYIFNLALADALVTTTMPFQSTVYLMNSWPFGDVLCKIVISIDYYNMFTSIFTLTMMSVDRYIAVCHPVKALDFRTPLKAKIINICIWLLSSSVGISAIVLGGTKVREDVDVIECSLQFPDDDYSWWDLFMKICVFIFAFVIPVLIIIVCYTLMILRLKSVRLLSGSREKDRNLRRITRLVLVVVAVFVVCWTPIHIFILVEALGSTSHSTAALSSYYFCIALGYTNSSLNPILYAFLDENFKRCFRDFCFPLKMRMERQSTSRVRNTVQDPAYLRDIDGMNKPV
# human KOR (Gi1) [3] = biological target: T3, human KOR (Gi1) (Homo sapiens, UniProt P41145, R271A); details: HEK-293T
# T3 construct: expressed in transfected cells; host or cells: HEK293T
# T3 sequence (P41145 whole entry R271A): as the sequence (P41145 whole entry) above, with R271A counted along it
# human KOR (Gi1) [4] = biological target: T4, human KOR (Gi1) (Homo sapiens, UniProt P41145, L253A); details: HEK-293T
# T4 construct: expressed in transfected cells; host or cells: HEK293T
# T4 sequence (P41145 whole entry L253A): as the sequence (P41145 whole entry) above, with L253A counted along it
# human KOR (Gi1) [5] = biological target: T5, human KOR (Gi1) (Homo sapiens, UniProt P41145, D105A); details: HEK-293T
# T5 construct: expressed in transfected cells; host or cells: HEK293T
# T5 sequence (P41145 whole entry D105A): as the sequence (P41145 whole entry) above, with D105A counted along it
# human KOR (Gi1) [6] = biological target: T6, human KOR (Gi1) (Homo sapiens, UniProt P41145, G319L); details: HEK-293T
# T6 construct: expressed in transfected cells; host or cells: HEK293T
# T6 sequence (P41145 whole entry G319L): as the sequence (P41145 whole entry) above, with G319L counted along it
# human KOR (Gi1) [7] = biological target: T7, human KOR (Gi1) (Homo sapiens, UniProt P41145, T94V); details: HEK-293T
# T7 construct: expressed in transfected cells; host or cells: HEK293T
# T7 sequence (P41145 whole entry T94V): as the sequence (P41145 whole entry) above, with T94V counted along it
# human KOR (Gi1) [8] = biological target: T8, human KOR (Gi1) (Homo sapiens, UniProt P41145, Q115N); details: HEK-293T
# T8 construct: expressed in transfected cells; host or cells: HEK293T
# T8 sequence (P41145 whole entry Q115N): as the sequence (P41145 whole entry) above, with Q115N counted along it
# human KOR (Gi1) [9] = biological target: T9, human KOR (Gi1) (Homo sapiens, UniProt P41145, N141A); details: HEK-293T
# T9 construct: expressed in transfected cells; host or cells: HEK293T
# T9 sequence (P41145 whole entry N141A): as the sequence (P41145 whole entry) above, with N141A counted along it
# human KOR (Gi1) [10] = biological target: T10, human KOR (Gi1) (Homo sapiens, UniProt P41145, Y320L); details: HEK-293T
# T10 construct: expressed in transfected cells; host or cells: HEK293T
# T10 sequence (P41145 whole entry Y320L): as the sequence (P41145 whole entry) above, with Y320L counted along it
# human KOR (Gi1) [11] = biological target: T11, human KOR (Gi1) (Homo sapiens, UniProt P41145, F114L); details: HEK-293T
# T11 construct: expressed in transfected cells; host or cells: HEK293T
# T11 sequence (P41145 whole entry F114L): as the sequence (P41145 whole entry) above, with F114L counted along it
# human KOR (Gi1) [12] = biological target: T12, human KOR (Gi1) (Homo sapiens, UniProt P41145, R274A); details: HEK-293T
# T12 construct: expressed in transfected cells; host or cells: HEK293T
# T12 sequence (P41145 whole entry R274A): as the sequence (P41145 whole entry) above, with R274A counted along it
# human KOR (Gi1) [13] = biological target: T13, human KOR (Gi1) (Homo sapiens, UniProt P41145, R257A); details: HEK-293T
# T13 construct: expressed in transfected cells; host or cells: HEK293T
# T13 sequence (P41145 whole entry R257A): as the sequence (P41145 whole entry) above, with R257A counted along it
# human KOR (Gi1) [14] = biological target: T14, human KOR (Gi1) (Homo sapiens, UniProt P41145, Y139L); details: HEK-293T
# T14 construct: expressed in transfected cells; host or cells: HEK293T
# T14 sequence (P41145 whole entry Y139L): as the sequence (P41145 whole entry) above, with Y139L counted along it
# human KOR (Gi1) [15] = biological target: T15, human KOR (Gi1) (Homo sapiens, UniProt P41145, N326A); details: HEK-293T
# T15 construct: expressed in transfected cells; host or cells: HEK293T
# T15 sequence (P41145 whole entry N326A): as the sequence (P41145 whole entry) above, with N326A counted along it
# human KOR (Gi1) [16] = biological target: T16, human KOR (Gi1) (Homo sapiens, UniProt P41145, D334A); details: HEK-293T
# T16 construct: expressed in transfected cells; host or cells: HEK293T
# T16 sequence (P41145 whole entry D334A): as the sequence (P41145 whole entry) above, with D334A counted along it
# human KOR (Gi1) [17] = biological target: T17, human KOR (Gi1) (Homo sapiens, UniProt P41145, D266A); details: HEK-293T
# T17 construct: expressed in transfected cells; host or cells: HEK293T
# T17 sequence (P41145 whole entry D266A): as the sequence (P41145 whole entry) above, with D266A counted along it
# human KOR (Gi1) [18] = biological target: T18, human KOR (Gi1) (Homo sapiens, UniProt P41145, K200A); details: HEK-293T
# T18 construct: expressed in transfected cells; host or cells: HEK293T
# T18 sequence (P41145 whole entry K200A): as the sequence (P41145 whole entry) above, with K200A counted along it
# human KOR (Gi1) [19] = biological target: T19, human KOR (Gi1) (Homo sapiens, UniProt P41145, D155A); details: HEK-293T
# T19 construct: expressed in transfected cells; host or cells: HEK293T
# T19 sequence (P41145 whole entry D155A): as the sequence (P41145 whole entry) above, with D155A counted along it
# human KOR (Gi1) [20] = biological target: T20, human KOR (Gi1) (Homo sapiens, UniProt P41145, F283A); details: HEK-293T
# T20 construct: expressed in transfected cells; host or cells: HEK293T
# T20 sequence (P41145 whole entry F283A): as the sequence (P41145 whole entry) above, with F283A counted along it
# human KOR (Gz) [21] = biological target: T21, human KOR (Gz) (Homo sapiens, UniProt P41145, N326A)
# T21 construct: expressed in transfected cells; host or cells: HEK293T
# T21 sequence (P41145 whole entry N326A): as the sequence (P41145 whole entry) above, with N326A counted along it
# human KOR (Gz) [22] = biological target: T22, human KOR (Gz) (Homo sapiens, UniProt P41145, N322A)
# T22 construct: expressed in transfected cells; host or cells: HEK293T
# T22 sequence (P41145 whole entry N322A): as the sequence (P41145 whole entry) above, with N322A counted along it
# human KOR (Gz) [23] = biological target: T23, human KOR (Gz) (Homo sapiens, UniProt P41145, D155A); details: HEK-293T
# T23 construct: expressed in transfected cells; host or cells: HEK293T
# T23 sequence (P41145 whole entry D155A): as the sequence (P41145 whole entry) above, with D155A counted along it
# human KOR (Gz) [24] = biological target: T24, human KOR (Gz) (Homo sapiens, UniProt P41145, F114L)
# T24 construct: expressed in transfected cells; host or cells: HEK293T
# T24 sequence (P41145 whole entry F114L): as the sequence (P41145 whole entry) above, with F114L counted along it
# human KOR (Gz) [25] = biological target: T25, human KOR (Gz) (Homo sapiens, UniProt P41145, R170A)
# T25 construct: expressed in transfected cells; host or cells: HEK293T
# T25 sequence (P41145 whole entry R170A): as the sequence (P41145 whole entry) above, with R170A counted along it
# human KOR (Gz) [26] = biological target: T26, human KOR (Gz) (Homo sapiens, UniProt P41145, R271A)
# T26 construct: expressed in transfected cells; host or cells: HEK293T
# T26 sequence (P41145 whole entry R271A): as the sequence (P41145 whole entry) above, with R271A counted along it
# human KOR (Gz) [27] = biological target: T27, human KOR (Gz) (Homo sapiens, UniProt P41145, D266A)
# T27 construct: expressed in transfected cells; host or cells: HEK293T
# T27 sequence (P41145 whole entry D266A): as the sequence (P41145 whole entry) above, with D266A counted along it
# human KOR (Gz) [28] = biological target: T28, human KOR (Gz) (Homo sapiens, UniProt P41145, R274A)
# T28 construct: expressed in transfected cells; host or cells: HEK293T
# T28 sequence (P41145 whole entry R274A): as the sequence (P41145 whole entry) above, with R274A counted along it
# human KOR (Gz) [29] = biological target: T29, human KOR (Gz) (Homo sapiens, UniProt P41145, L253A); details: HEK-293T
# T29 construct: expressed in transfected cells; host or cells: HEK293T
# T29 sequence (P41145 whole entry L253A): as the sequence (P41145 whole entry) above, with L253A counted along it
# human KOR (Gz) [30] = biological target: T30, human KOR (Gz) (Homo sapiens, UniProt P41145)
# T30 construct: expressed in transfected cells; host or cells: HEK293T
# T30 sequence (P41145 whole entry): as the sequence (P41145 whole entry) above
# human KOR (Gz) [31] = biological target: T31, human KOR (Gz) (Homo sapiens, UniProt P41145, K200A)
# T31 construct: expressed in transfected cells; host or cells: HEK293T
# T31 sequence (P41145 whole entry K200A): as the sequence (P41145 whole entry) above, with K200A counted along it
# human KOR (Gz) [32] = biological target: T32, human KOR (Gz) (Homo sapiens, UniProt P41145, G319L)
# T32 construct: expressed in transfected cells; host or cells: HEK293T
# T32 sequence (P41145 whole entry G319L): as the sequence (P41145 whole entry) above, with G319L counted along it
# human KOR (Gz) [33] = biological target: T33, human KOR (Gz) (Homo sapiens, UniProt P41145, D105A)
# T33 construct: expressed in transfected cells; host or cells: HEK293T
# T33 sequence (P41145 whole entry D105A): as the sequence (P41145 whole entry) above, with D105A counted along it
# human KOR (Gz) [34] = biological target: T34, human KOR (Gz) (Homo sapiens, UniProt P41145, Q115N)
# T34 construct: expressed in transfected cells; host or cells: HEK293T
# T34 sequence (P41145 whole entry Q115N): as the sequence (P41145 whole entry) above, with Q115N counted along it
# human KOR (Gz) [35] = biological target: T35, human KOR (Gz) (Homo sapiens, UniProt P41145, F283A)
# T35 construct: expressed in transfected cells; host or cells: HEK293T
# T35 sequence (P41145 whole entry F283A): as the sequence (P41145 whole entry) above, with F283A counted along it
# human KOR (Gz) [36] = biological target: T36, human KOR (Gz) (Homo sapiens, UniProt P41145, K227A)
# T36 construct: expressed in transfected cells; host or cells: HEK293T
# T36 sequence (P41145 whole entry K227A): as the sequence (P41145 whole entry) above, with K227A counted along it
# [37] = HEK-293T, read-out: Gz (Figure 5A concentration-response, replicate values)
# T1 sequence (P41145 whole entry R170A): as the sequence (P41145 whole entry) above, with R170A counted along it
compound,measurement,setting,value
"CN(C(=O)/C=C/c1ccoc1)[C@@H]1CC[C@@]2(O)[C@H]3Cc4ccc(O)c5c4[C@@]2(CCN3CC2CC2)[C@H]1O5 [Nalfurafine, nalfurafine]",Emax,human KOR (Gi1) [1],58.7%
same,Emax%,human KOR (Gi1) [2],101.1% and 100%
same,Emax,human KOR (Gi1) [2]; HEK-293T,85 ± 7%
same,Emax,human KOR (Gi1) [3],105%
same,Emax,human KOR (Gi1) [4],106%
same,Emax,human KOR (Gi1) [5],94.3%
same,Emax,human KOR (Gi1) [6],116%
same,Emax,human KOR (Gi1) [7],99.2%
same,Emax,human KOR (Gi1) [8],77.3%
same,Emax,human KOR (Gi1) [9],101%
same,Emax,human KOR (Gi1) [10],76.3%
same,Emax,human KOR (Gi1) [11],65.5%
same,Emax,human KOR (Gi1) [12],100%
same,Emax,human KOR (Gi1) [13],99.5%
same,Emax,human KOR (Gi1) [14],96.7%
same,Emax,human KOR (Gi1) [15],108%
same,Emax,human KOR (Gi1) [16],77.5%
same,Emax,human KOR (Gi1) [17],106%
same,Emax,human KOR (Gi1) [18],96.1%
same,Emax,human KOR (Gi1) [19],79.1%
same,Emax,human KOR (Gi1) [20],77.6%
same,FC vs wild type,human KOR (Gz) [21],69
same,Emax,human KOR (Gz) [21]; HEK-293T,96.9%
same,FC vs wild type,human KOR (Gz) [22],1259
same,Emax,human KOR (Gz) [22]; HEK-293T,81.8%
same,Emax,human KOR (Gz) [23],92.7%
same,FC vs wild type,human KOR (Gz) [24],54
same,Emax,human KOR (Gz) [24]; HEK-293T,85.6%
same,FC vs wild type,human KOR (Gz) [25],13 and ~10
same,Emax,human KOR (Gz) [25]; HEK-293T,96%
same,FC vs wild type,human KOR (Gz) [26],398
same,Emax,human KOR (Gz) [26]; HEK-293T,110%
same,FC vs wild type,human KOR (Gz) [27],1259
same,Emax,human KOR (Gz) [27]; HEK-293T,112%
same,FC vs wild type,human KOR (Gz) [28],977
same,Emax,human KOR (Gz) [28]; HEK-293T,99.1%
same,Emax,human KOR (Gz) [29],112%
same,Emax%,human KOR (Gz) [30],96.48%
same,FC vs wild type,human KOR (Gz) [30],1
same,Emax,human KOR (Gz) [30]; HEK-293T,96.7%
same,activation at 10 pM,human KOR (Gz) [30]; [37],45.5%
same,activation at 0.1 µM,human KOR (Gz) [30]; [37],99.7%
same,activation at 1 µM,human KOR (Gz) [30]; [37],111%
same,activation at 10 µM,human KOR (Gz) [30]; [37],97.8%
same,FC vs wild type,human KOR (Gz) [31],9
same,Emax,human KOR (Gz) [31]; HEK-293T,108%
same,FC vs wild type,human KOR (Gz) [32],162
same,FC vs wild type,human KOR (Gz) [33],479
same,Emax,human KOR (Gz) [33]; HEK-293T,103%
same,FC vs wild type,human KOR (Gz) [34],39
same,Emax,human KOR (Gz) [34]; HEK-293T,78.7%
same,FC vs wild type,human KOR (Gz) [35],44
same,Emax,human KOR (Gz) [35]; HEK-293T,106%
same,FC vs wild type,human KOR (Gz) [36],3
